Several values for one entry are separate records, joined by “and”; a condition that tells them apart may be missing. Equal values may be shown once.
Key:
[1] = system: IL-1β secretion from h-PBMC's; assay: IL-1β release from h-PBMC's, ELISA; type: cell-based, human; settings: h-PBMC's
Method: (§1) Authentic samples of agrimoniin and coriariin A were supplied by Professor Yoshida (Okayama University, Japan). Dimeric gallotannin (analog of coriariin A) and β-D-PGG were synthesized as described. LPS (E. coli 055:B5 phenol extract, MW range 50-100 KD). Ficoll-Histopaque (ρ=1.077 g/mL), Fetal Bovine Serum, sterile, hybridoma tested (FCS), gentamicin 10 mg/mL. L-glutamine, 200 mM. Dextran B-512 Leuconostoc Av M.W. 580000, and Trypan Blue stain were purchased from Sigma. Hanks Buffer Saline Solution 1×, with phenol red, mediatech (HBSS) and RPMI 1640 1×, mediatech were purchased from Fisher Scientific, Human IL-1β and TNF-α Enzyme Linked ImmunoSorbent Assay (ELISA) kits were purchased from R and D Systems, Minneapolis, Minn. Fresh heparinized blood was obtained from health human subjects (ages 20-34).
(§2) Dose-Response Data: General Procedure. H-PBMC's were isolated by reported procedures (10. 18). The cells counted and the viability was determined by Trypan Blue exclusion (typically, viability exceeded 95%). The concentration of the cells in the 0.5 mL wells was adjusted to 1×10^6 cells/well by diluting with the required amount of RPMI.
(§3) The appropriate amount of a tannin (or LPS) stock solution in HBSS was added to each well to furnish the concentration values reported in the Figures. […] The culture plates were incubated in a 5% CO2, 37° C. humidified incubator for the indicated time. At the end of the time interval, 450 μL of the culture supernatant from each well was harvested, after centrifugation at 400 g, 25° C., 10 min. with brake, and stored at −78° C. pending ELISA analysis for the cytokine(s). The ELISA assays were conducted per the manufacturer's instructions using standard calibration curves to calculate cytokine concentration from observed absorbance readings. The cytokine values reported are averages of three runs±SE.
(§4) The dimeric antitumor ellagitannins coriariin A and agrimoniin, the monomeric gallotannin β-D-pentagalloylglucose (β-D-PGG) and the dimeric gallotannin of this invention were all examined in this study. The dimeric gallotannin is an analog of coriariin A and is identical to the parent ellagitannin except that the galloyl rings at O(4) and O(6) are not joined in a hexahydroxydiphenoyl (HHDP) linkage. h-PBMC's were incubated with the compound under investigation for the indicated length of time and the amounts of both IL-1β and, independently, TNF-α, present in the culture supernatants was determined using commercially available ELISA kits. In each case, LPS was used as a positive control while untreated cells were reserved as negative controls.
In the third study, compounds 17c-20c were examined for their ability to induce secretion of IL-1β from h-PBMC's (FIG. 16). Recall from the introduction that the cytokine IL-1β is also released in an LPS-stimulated septic shock response. The compounds that cause very little secretion of IL-1β or none at all will be the optimal compounds for potential septic shock therapeutics because they will be less likely themselves to induce a septic shock response.

[2] = system: TNF-α secretion from h-PBMC's; assay: TNF-α release from h-PBMC's, ELISA; type: cell-based, human
Method: as §1, §2, §3, §4
In the first study, the induction of TNF-α secretion from h-PBMC's in the presence of each compound 17c-21c was measured. The h-PBMC's were incubated with each compound for 24 hours. The TNF-α levels in the cell culture supernatant were assayed by Enzyme Linked ImmunoSorbant Assay (ELISA). The data point for each assay represent the mean of triplicate measurements. […] (See FIG. 11).

[3] = system: LPS induced TNF-α secretion from h-PBMC's; assay: Inhibition of LPS induced TNF-α secretion from h-PBMC's; type: cell-based, human; settings: h-PBMC's
Method: In the second study, the ability of compounds 17c-20c to inhibit LPS induced TNF-α production in h-PBMC's was investigated using four assays. The first experiment was a kinetics run in which the h-PBMC's were initially incubated with a fixed concentration of LPS (5 μg/mL) for 45 minutes. This incubation period was followed by addition of a fixed concentration (10 μg/mL) of compounds 17c-20c. The cells were harvested at varying intervals of time. […] The optimal time was determined by comparing the amount of TNF-α secreted by LPS alone to the amount of TNF-α secreted by LPS and substrate at each time point.
The second assay determined the minimum amount of substrate required for inhibition. LPS (10 μg/mL) was incubated with h-PBMC's for 45 minutes followed by addition of 17c-20c at varying concentrations. The cell culture supernatant was harvested after 8 hours. The inherent variability in using cells from different subjects, or in the day of assay, made it difficult to compare overall effectiveness of inhibitors. Therefore, to more easily identify the concentration at which maximum inhibition occurs for a given compound, the TNF-α secretion was normalized by calculating a percent of maximum secretion value (based on LPS alone) (FIG. 13). […] The optimal concentration for inhibition varied between substrates, but the general dose response trend was the same. Overall, the maximum inhibition was 45% for 18c and 20c, and 25% for 19c.
The third assay investigated the ability of 17c, 18c, and 20c to inhibit LPS induced TNF-α secretion using a smaller dosage of LPS (5 μg/mL) (FIG. 14). Again, the response was dose dependent. The maximum inhibition was 45% for 17c and 20c, and 35% for 18c.
In the fourth assay the varying concentrations of substrates 17c-20c and LPS were added at the same time to determine the effect of addition sequence on the inhibition of TNF-α secretion (FIG. 15). The addition time seemed to make a difference in the overall dose response trend. However, maximum inhibition was the same as when the compounds were added 45 minutes after LPS addition (about 40% for each compound).
Finally, in the last study, analogs 19c and 20c were again tested for inhibition LPS induced TNF-α secretion (FIG. 17). In this assay a smaller dose of LPS was used to determine if inhibition was greater when much lower doses of LPS were present. The substrates were added 45 minutes after LPS addition and the cells were harvested after 8 hours. It doesn't appear as though the substrates are better inhibitors when smaller amounts of LPS are used, again perhaps reflecting receptor saturation with LPS at this dosage.

[4] = system: LPS induced secretion of TNF-α; assay: In vivo study in rats given LPS with or without β-PGG
Method: The ability of β-PGG to function in vivo was investigated in collaboration with Dr. Charles Lang of the Hershey Medical School. In this experiment, two groups of rats were used. One group was intravenously administered 1 mg/kg of LPS as well as 25 mg of β-PGG. The second group was given only 1 mg/kg of LPS. […] These preliminary in vivo results were encouraging, however several problems with the use of β-PGG as an inhibitor are evident. A large amount of β-PGG was required to elicit inhibition because β-PGG is a small monomeric gallotannin that is able to interact with other blood proteins such as rat serum albumin.

sarcoma-180 tumors = settings: cited from earlier work; for life span increase / regressors: Miyamoto's mouse studies, sarcoma-180; for antitumor effect, in words: mice infected with sarcoma-180 tumors
L929 murine fibroblast = assay: qualitative L929 murine fibroblast lysis assay of h-PBMC supernatant; type: cell-based
Text: This indirect measure of TNF-α levels in the h-PBMC supernatant provided the first evidence which implicated this cytokine in tannin-mediated antitumor activity and encouraged a more quantitative assessment of the TNF-α liberating capacity of agrimoniin and the related species as described below.

[5] = system: IL-1β secretion from h-PBMC's; settings: cited from earlier work
[6] = in vivo; cited from earlier work
[7] = fixed concentrations, time course
[8] = rats, 1 mg/kg LPS intravenously and 25 mg β-PGG

O=C(OCC1OC(OC(=O)c2cc(O)c(O)c(O)c2)[C@H](OC(=O)c2cc(O)c(O)c(O)c2)[C@@H](OC(=O)c2cc(O)c(O)c(O)c2)C1OC(=O)c1cc(O)c(O)c(O)c1)c1cc(O)c(O)c(O)c1 (stereo partly drawn) [Compound 1, β-D-pentagalloylglucose]
IL-1β detected at 4 h reading ([1]; fixed concentrations, 4 h): only trace amounts
time of maximum IL-1β discharge [1, 7]: ca. 24 h
IL-1β secretion from h-PBMC's, in words ([1]; listed as β-D-PGG): effective at stimulating the production of IL-1β
IL-1β secretion from h-PBMC's, in words ([1]; listed as β-PGG): high levels of IL-1β
TNF-α secretion from h-PBMC's, in words [2]: much less TNF-α discharge
TNF-α detected at 4 h reading ([2]; fixed concentrations, 4 h): only trace amounts
time of maximum TNF-α discharge [2, 7]: ca. 24 h
inhibition of LPS induced TNF-α secretion from h-PBMC's, in words [3]: can inhibit LPS induced secretion of TNF-α
TNF-α secreted from 90 min ([4]; rats given LPS 1 mg/kg intravenously + 25 mg β-PGG (LPS + 1), 90 min, individual rats, ± SD): 6919.4 ± 823.2 pg/mL and 4509.4 ± 583.3 pg/mL and 8060.7 ± 918.2 pg/mL and 1928.4 ± 331.5 pg/mL
TNF-α secreted after 180 min ([4]; rats given LPS 1 mg/kg intravenously + 25 mg β-PGG (LPS + 1), 180 min, individual rats, ± SD): 733.9 ± 28.3 pg/mL and 291.7 ± 68.0 pg/mL and 1347.5 ± 150.4 pg/mL and 129.9 ± 105.5 pg/mL
TNF-α secretion compared to LPS-only rats, in words [4, 8]: suppressed levels of TNF-α secretion
septic shock response (blood pressure) [4, 8]: low blood pressure was still observed
life span increase (sarcoma-180 tumors): 82%
regressors (sarcoma-180 tumors): 0/6
antitumor effect, in words (sarcoma-180 tumors): much less effective antitumor agents

O=C(OC1OC2COC(=O)c3cc(O)c(O)c(O)c3-c3c(cc(O)c(O)c3O)C(=O)OC2C(OC(=O)c2cc(O)c(O)c(O)c2)C1OC(=O)c1cc(O)c(O)c(O)c1)c1cc(O)c(O)c(Oc2c(C(=O)OC3OC4COC(=O)c5cc(O)c(O)c(O)c5-c5c(cc(O)c(O)c5O)C(=O)OC4C(OC(=O)c4cc(O)c(O)c(O)c4)C3OC(=O)c3cc(O)c(O)c(O)c3)cc(O)c(O)c2O)c1 (stereo not drawn) [coriariin A]
IL-1β inducing ability relative to agrimoniin on a molar basis ([1]; 4 h): twice that of agrimoniin
TNF-α secretion from h-PBMC's, in words [2]: higher levels of TNF-α
release of TNF-α, indirect measure by L929 lysis (L929 murine fibroblast): promoted release of TNF-α in substantial amounts
life span increase (sarcoma-180 tumors): 238%
regressors (sarcoma-180 tumors): 3/6
antitumor effect, in words (sarcoma-180 tumors): induce tumor regression

O=C(O[C@H]1O[C@@H]2COC(=O)c3cc(O)c(O)c(O)c3-c3c(cc(O)c(O)c3O)C(=O)O[C@H]2[C@@H]2OC(=O)c3cc(O)c(O)c(O)c3-c3c(cc(O)c(O)c3O)C(=O)O[C@@H]12)c1cc(O)c(O)c(Oc2c(C(=O)O[C@H]3O[C@@H]4COC(=O)c5cc(O)c(O)c(O)c5-c5c(cc(O)c(O)c5O)C(=O)O[C@H]4[C@@H]4OC(=O)c5cc(O)c(O)c(O)c5-c5c(cc(O)c(O)c5O)C(=O)O[C@@H]34)cc(O)c(O)c2O)c1 [agrimoniin]
IL-1β secreted above blank ([1]; 4 h treatment with 28 μM agrimoniin): ca. 1 ng/mL
release of TNF-α, indirect measure by L929 lysis (L929 murine fibroblast): promoted release of TNF-α in substantial amounts
antitumor effect, in words (sarcoma-180 tumors): induce tumor regression
IL-1β secreted (reported earlier) ([5]; 20 μM agrimoniin): ca. 1.2 ng/mL
time of maximal IL-1β secretion ([5]; agrimoniin-mediated, Miyamoto): ca. 24 h

TNF-α
clearance from serum, t1/2 [6]: 6.5 to 10.5 min
